The record followed here is patent US11161819B2, “Substituted tetrahydroisoquinoline compounds useful as GPR120 agonists” (Merck Sharp & Dohme Corp., priority 2016, dated 2021).

For orientation: EC50 means the concentration that produces a half-maximal response.

This experiment addresses T1, human GPR120 (Homo sapiens, UniProt Q5NUL3).
T1 construct: expressed in transfected cells
T1 sequence (Q5NUL3 1-361): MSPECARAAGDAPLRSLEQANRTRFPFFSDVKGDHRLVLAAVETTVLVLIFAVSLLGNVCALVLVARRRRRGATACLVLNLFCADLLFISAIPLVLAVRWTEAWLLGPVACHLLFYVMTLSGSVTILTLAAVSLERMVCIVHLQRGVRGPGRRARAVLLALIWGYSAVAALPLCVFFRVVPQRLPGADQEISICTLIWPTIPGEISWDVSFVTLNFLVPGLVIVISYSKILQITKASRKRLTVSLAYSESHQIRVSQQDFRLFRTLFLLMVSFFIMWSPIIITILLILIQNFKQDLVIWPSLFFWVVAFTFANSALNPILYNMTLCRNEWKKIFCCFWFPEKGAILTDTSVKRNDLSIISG
Description: Human GPR120 IP1 Assay (inositol phosphate turnover, CisBio IP-One kit). It is filed as cell-based. The note with it: IP1 accumulation in CHO-K1 cells stably expressing the short form of human GPR120; 60 min compound incubation; 4-parameter fit; read-out: hGPR120 EC50. The text has this:
Human GPR120 IP1 Assay Principle
The binding of small molecule agonists to the G-protein-coupled receptor GPR120 activates phospholipase C, and leads to the generation of inositol 1,4,5-trisphosphate (InsP3 or IP3). IP3 is subsequently de-phosphorylated to IP1, which accumulates in cells and is stable in the presence of lithium chloride.
In the present method, agonist-induced activation of the human GPR120 receptor was monitored by measuring the accumulation of IP1 in CHO-K1 cells that were stably expressing the short form of human GPR120 (Accession #NM_001195755). Following agonist addition, GPR120 activation and subsequent accumulation of IP1 was measured using a homogeneous Time Resolved Fluorescence-based ELISA commercially available from CisBio (IP-one ELISA Kit). The IP-One ELISA was a competitive immunoassay which uses IP1 labeled with […] and a terbium cryptate-labeled anti-IP1 monoclonal antibody. […] The signal loss was then back calculated to IP1 concentration using an IP1 standard curve. Determination of IP1 concentration was a direct measure of GPR120 activation and was used to determine compound potency (EC50).
Generation of GPR120-Expressing Cells:
Human GPR120 stable cell-lines were generated in CHO cells. The expression plasmids were transfected using lipofectamine (Life Technologies) following manufacturer's instructions. Stable cell-lines were generated following drug selection and single cell cloning.
Inositol Phosphate Turnover (IP1) Assay:
The assay was performed in 384-well format. CHO cells stably expressing human GPR120 were plated at […] per well in growth medium (DMEM/F12, 10% fetal calf serum). Cell plates were then incubated 16 hours at 37 degrees in a 5% CO2 incubator. Measurement of Inositol Phosphate Turnover (IP1) was performed using the CisBio IP-One kit (Part number 62IPAPEB). After the 16 hour incubation, the growth media was removed by centrifugation using the BlueWasher (AusWasher GUI Ver. v1.0.1.8) Protocol #21-“Light Dry” and 10 ul of stimulation buffer (prepared as described in the kit) was added to each well. In a separate plate, compounds were diluted in DMSO (200-fold over the final concentration in the assay well) and 50 nl was acoustically transferred to the appropriate well in the assay cell plate. The plates were then incubated for 60 minutes at 37 degrees in a 5% CO2 incubator. 10 ul of detection buffer (also prepared as described in the IP-One kit) was added to each well and the plates were incubated at room temperature for 60 minutes in the dark. The plates were then read in a Perkin Elmer EnVision or equivalent reader able to measure FRET. Fluorescent ratio of emission at 665 and 620 nm was then converted to the IP1 concentration by back calculating from an IP1 standard curve prepared at the time of the assay. The data was normalized to % activity using a reference compound, and the EC50 values were determined using a standard 4-parameter fit.

For the compound “3-{2-[2-cyano-5-(cyclobutyloxy) phenyl]-1,2,3,4-tetrahydroiso- quinolin-6-yl}propanoic acid [Example 46]”, the EC50 came to 5390 nM.
As to `CC(CC(=O)O)c1ccc2c(c1)CCN(c1cc(OC(F)(F)F)ccc1F)C2` (single isomer, unassigned) [Example 8, 3-(2-(2-fluoro-5-(trifluoromethoxy)phenyl)-1,2,3,4-tetrahydro-isoquinolin-6-yl)-butanoic acid], the EC50 worked out at 414 nM.
Consider `CC(Cc1ccc2c(c1F)CCN(c1cc(OC(F)(F)F)cc(Cl)c1F)C2)C(=O)O` (single isomer, unassigned) [Example 68, 3-{2-[3-chloro-2-fluoro-5-(trifluoromethoxy)phenyl]-5-fluoro-1,2,3,4-tetrahydroisoquinolin-6-yl}-2-methyl-propanoic acid], for which the EC50 was 58 nM.
Take `CC(Cc1ccc2c(c1F)CCN(c1cc(OC(F)(F)F)cc(Cl)c1F)C2)C(=O)O` (single isomer, unassigned) [Example 69, 3-{2-[3-chloro-2-fluoro-5-(trifluoromethoxy)phenyl]-5-fluoro-1,2,3,4-tetrahydroisoquinolin-6-yl}-2-methyl-propanoic acid]: the EC50 came to 231 nM.
Then `Cc1ccc(-n2nc(C)c(C#N)c2N2CCc3cc(C(C)CCCC(=O)O)ccc3C2)cc1` (single isomer, unassigned) [Example 140, 5-{2-[4-cyano-3-methyl-1-(4-methylphenyl)-1H-pyrazol-5-yl]-1,2,3,4-tetrahydroisoquinolin-6-yl} hexanoic acid], with 209 nM; and `Cc1ccc(-n2nc(C)c(C#N)c2N2CCc3cc(C(C)CCCC(=O)O)ccc3C2)cc1` (single isomer, unassigned) [Example 142, 5-{2-[4-cyano-3-methyl-1-(4-methylphenyl)-1H-pyrazol-5-yl]-1,2,3,4-tetra-hydroisoquinolin-6-yl}hexanoic acid], with 312 nM; and `O=C(O)CCc1ccc2c(c1)CCN(c1cc(Oc3ccccn3)cc(C(F)F)c1F)C2` [Example 2, 3-(2-(3-(difluoromethyl)-2-fluoro-5-(pyridin-2-yloxy)phenyl)-1,2,3,4-tetrahydro-isoquinolin-6-yl)propanoic acid], with 17 nM.
For `O=C(O)CCc1ccc2c(c1)CCN(c1nc(OC3CCC3)ccc1F)C2` [Example 5, 3-(2-(6-cyclobutoxy-3-fluoropyridin-2-yl)-1,2,3,4-tetrahydro-isoquinolin-6-yl)-propanoic acid], the concentration giving a half-maximal response (EC50) was 65 nM.
In the case of `CC1c2ccc(CCC(=O)O)cc2CCN1c1cc(OC2CCC2)ccc1F` (centres unmarked) [Example 6, 3-(2-(5-cyclobutoxy-2-fluorophenyl)-1-methyl-1,2,3,4-tetrahydroisoquinolin-6-yl)-propanoic acid], the EC50 was determined as 417 nM.
As for `CC(CC(=O)O)c1ccc2c(c1)CCN(c1cc(OC(F)(F)F)ccc1F)C2` (centres unmarked) [Example 7, 3-(2-(2-fluoro-5-(trifluoromethoxy)phenyl)-1,2,3,4-tetrahydroisoquinolin-6-yl)butanoic acid], the EC50 was found to be 533 nM.
`Cc1cnc(Oc2cc(Cl)c(F)c(N3CCc4cc(CCC(=O)O)ccc4C3)c2)s1` [Example 9]: the EC50 was 20 nM.
In the case of `O=C(O)CCc1ccc2c(c1)CCN(c1cc(OC3CCC3)cc(C(F)F)c1F)C2` [Example 10, 3-{2-[5-(cyclobutyloxy)-3-(difluoromethyl)-2-fluorophenyl]-1,2-3,4-tetrahydroisoquinolin-6-yl}-propanoic acid], the EC50 came out at 14 nM.
`O=C(O)CCc1ccc2c(c1)CCN(c1cc(OC3CCC3)cc(F)c1F)C2` [Example 11, 3-{2-[5-(cyclobutyloxy)-2,3-difluorophenyl]-1,2,3,4-tetrahydro-isoquinolin-6-yl}propanoic acid]: the EC50 amounted to 15 nM.
Turning to `N#Cc1cc(OC2CCC2)cc(N2CCc3cc(CCC(=O)O)ccc3C2)c1F` [Example 12, 3-{2-[3-cyano-5-(cyclobutyloxy)-2-fluorophenyl]-1,2,3,4-tetra-hydroisoquinolin-6-yl}propanoic acid], the EC50 came to 24 nM.
As for `COc1cc(OC(F)(F)F)cc(N2CCc3cc(CCC(=O)O)ccc3C2)c1F` [Example 13, 3-{2-[2-fluoro-3-methoxy-5-(trifluoromethoxy)phenyl]-1,2,3,4-tetrahydroisoquinolin-6-yl}-propanoic acid], the EC50 was 18 nM.
To `Cc1cnc(Oc2cc(C(F)F)c(F)c(N3CCc4cc(CCC(=O)O)ccc4C3)c2)s1` [Example 14, 3-(2-{3-(difluoromethyl)-2-fluoro-5-[(5-methyl-1,3-thiazol-2-yl)oxy]phenyl}-1,2,3,4-tetrahydro-isoquinolin-6-yl)propanoic acid] belongs 20 nM; to `O=C(O)CCc1ccc2c(c1)CCN(c1cc(OC(F)(F)F)cc(Cl)c1F)C2` [Example 15, 3-{2-[3-chloro-2-fluoro-5-(trifluoromethoxy)phenyl]-1,2,3,4-tetrahydroisoquinolin-6-yl}-propanoic acid], 22 nM.
For the compound `Cc1ccc(Oc2cc(C(F)F)c(F)c(N3CCc4cc(CCC(=O)O)ccc4C3)c2)nc1` [Example 16, 3-(2-{3-(difluoromethyl)-2-fluoro-5-[(5-methylpyridin-2-yl)oxy]phenyl}-1,2,3,4-tetrahydroiso-quinolin-6-yl)propanoic acid], the EC50 was 22 nM.
For the compound `COc1cc(Oc2ncc(C)s2)cc(N2CCc3cc(CCC(=O)O)ccc3C2)c1F` [Example 17, 3-(2-{2-fluoro-3-methoxy-5-[(5-methyl-1,3-thiazol-2-yl)oxy]phenyl}-1,2,3,4-tetrahydroiso-quinolin-6-yl)propanoic acid], the EC50 was found to be 23 nM.
With `COc1cc(OC2CCC2)cc(N2CCc3cc(CCC(=O)O)ccc3C2)c1F` [Example 18, 3-{2-[5-(cyclobutyloxy)-2-fluoro-3-methoxyphenyl]-1,2,3,4-tetra-hydroisoquinolin-6-yl}propanoic acid], the half-maximal effective concentration (EC50) was 24 nM.
For `O=C(O)CCc1ccc2c(c1)CCN(c1cc(OC3CCC3)ccc1F)C2` [Example 19, 3-{2-[5-(cyclobutyloxy)-2-fluorophenyl]-1,2,3,4-tetrahydroiso-quinolin-6-yl}propanoic acid], the EC50 amounted to 27 nM.
For the compound `CO[C@H]1C[C@H](Oc2cc(F)c(F)c(N3CCc4cc(CCC(=O)O)ccc4C3)c2)C1` [Example 20, 3-(2-{2,3-difluoro-5-[(trans-3-methoxycyclobutyl)oxy]phenyl}-1,2,3,4-tetrahydroisoquinolin-6-yl)propanoic acid], the EC50 turned out to be 29 nM.
Then `COc1cc(F)c(N2CCc3cc(CCC(=O)O)ccc3C2)cc1Oc1ncc(C)s1` [Example 21, 3-(2-{2-fluoro-4-methoxy-5-[(5-methyl-1,3-thiazol-2-yl)oxy]phenyl}-1,2,3,4-tetrahydroiso-quinolin-6-yl)propanoic acid], with 51 nM; and `Cc1ccc(-n2nc(C)c(Cl)c2N2CCc3cc(CCC(=O)O)ccc3C2)cc1` [Example 22, 3-{2-[4-chloro-3-methyl-1-(4-methylphenyl)-1H-pyrazol-5-yl]-1,2,3,4-tetrahydroisoquinolin-6-yl} propanoic acid], with 56 nM.
As to `O=C(O)CCc1ccc2c(c1F)CCN(c1cc(CC3CCC3)ccc1F)C2` [Example 23, 3-{2-[5-(cyclobutylmethyl)-2-fluorophenyl]-5-fluoro-1,2,3,4-tetrahydroisoquinolin-6-yl}propanoic acid], the EC50 was determined as 60 nM.
To `COc1cc(Cl)c(N2CCc3cc(CCC(=O)O)ccc3C2)cc1OC1CCC1` [Example 24, 3-{2-[2-chloro-5-(cyclobutyloxy)-4-methoxyphenyl]-1,2,3,4-tetrahydroisoquinolin-6-yl}propanoic acid] belongs 61 nM.
